Experimental data taken from US20080027088A1, “Imidazole-Based Hmg-Coa Reductase Inhibitors” (Warner-Lambert Company, LLC, priority 2004, published 2008).
Marks after values point to notes of the source that are not given here.

Experiments:
[1] = tested on: ApoE knockout mice; assay: Plasma sphingomyelin and phosphatidylcholine by HPLC, 4 weeks (Table 2); assay type: in vivo; details: for PC in plasma / SM in plasma / SM; PC molar ratio: diet admix 4 weeks, n = 10
Protocol: Animal experiments—Male C57BI/6J and ApoE KO mice on C57BI/6J background were obtained from the Jackson Laboratory (Bar Harbor, Me.) or Taconic (Germantown, N.Y.) (Plaque formation in ApoE KO mice is lipid-driven (A. S. Plump et al., Cell. 1992;71 (2):343-53)). Myriocin was mixed with Western diet containing 0.21% cholesterol and 21% fat. 8-12-week-old mice received 0.3 mg myriocin/kg/day for 12 weeks (Table 1). […] Control groups consisted of ApoE KO mice fed normal chow or Western diet without myriocin, and normal chow-fed C57BI/6J mice. Body weight and chow feeding was measured every week to examine the food consumption. For the femoral artery cuff model, 8-10 week-old male ApoE KO mice were anethetized and the right femoral artery was dissected from its surroundings. A nonconstrictive polyethylene cuff (Portex, 0.40-mm inner diameter, 0.80-mm outer diameter, and 1.5-mm length) was placed looselyaround the right femoral artery.
The liquid chromatography system was composed of twin Shimadzu (Columbia, Md.) LC-10ADvp HPLC pumps with a SCL-10Avp controller (flow rate 0.2 mL/minute), and a LEAP Technologies (Carrboro, N.C.) CTC PAL autosampler. For the quantitative method, the analytical column was a Phenomenex (Torrance, Calif.) Polar-RP (2.0×150 mm, 4 μm) with a MetaChem (Torrance, Calif.) MetaGuard Polaris C8 2.0 mm direct connect (5 μm) guard column. Mobile phase A consisted of water/acetonitrile/formic acid (60/40/0.1) and mobile phase B was propanol. The HPLC pumps were programmed with a gradient for each injection to deliver 98% mobile phase A (0-1 minute), 30% mobile phase A (1-2 minutes), 30% mobile phase A (2-4 minutes), and 98% mobile phase A (4-4.5 minutes). A sample volume of 2 μL was injected into the LC/MS/MS system. Final chromatographic retention times for sphingomyelin, sphinganine, psychosine (internal standard) and ceramide were 4.84 minutes, 5.43 minutes, 4.92 minutes and 5.31 , minutes, respectively. Lipid extracts were analyzed by HPLC and evaporative light scattering detector to determine plasma sphingomyelin and phosphatidylcholine (PC) levels (R. Homan and M.K. Anderson, J. Chromatogr. B. Biomed. Sci. Appl. 1998;708:21-6).
To investigate whether myriocin was effective in lowering sphingomyelin biosynthesis, various concentrations of myriocin were administered to ApoE KO mice for 4 weeks and plasma SM levels were examined. […] At the highest dose of myriocin (1 mg/kg/day), plasma sphingomyelin levels were reduced by 70% when compared with no-myriocin control. Thus, myriocin in a diet admix was effective in inhibiting sphingomyelin biosynthesis and lowering plasma sphingomyelin levels. Since SM levels relative to phospholipids has been regarded as a risk factor for coronary artery disease, plasma PC levels were determined by HPLC analysis. Although there were significant changes in plasma SM levels, plasma PC levels were not changed to the same extent by myriocin. Consequently, SM/PC molar ratio was lowered by myriocin in a dose-dependent manner (Table 2).

[2] = molecular target: T1, serine palmitoyltransferase (SPT) (Mus musculus, UniProt O35704+P97363); assay: SPT activity of liver cell-free homogenate (14C-serine, palmitoyl CoA, TLC); assay type: in vivo, mice; details: 0.3 mg/kg/day, 12 weeks
T1 construct: from tissue; host or cells: mouse liver (ApoE KO and C57Bl/6J mice), cell-free homogenate
T1 sequence (P97363 1-560): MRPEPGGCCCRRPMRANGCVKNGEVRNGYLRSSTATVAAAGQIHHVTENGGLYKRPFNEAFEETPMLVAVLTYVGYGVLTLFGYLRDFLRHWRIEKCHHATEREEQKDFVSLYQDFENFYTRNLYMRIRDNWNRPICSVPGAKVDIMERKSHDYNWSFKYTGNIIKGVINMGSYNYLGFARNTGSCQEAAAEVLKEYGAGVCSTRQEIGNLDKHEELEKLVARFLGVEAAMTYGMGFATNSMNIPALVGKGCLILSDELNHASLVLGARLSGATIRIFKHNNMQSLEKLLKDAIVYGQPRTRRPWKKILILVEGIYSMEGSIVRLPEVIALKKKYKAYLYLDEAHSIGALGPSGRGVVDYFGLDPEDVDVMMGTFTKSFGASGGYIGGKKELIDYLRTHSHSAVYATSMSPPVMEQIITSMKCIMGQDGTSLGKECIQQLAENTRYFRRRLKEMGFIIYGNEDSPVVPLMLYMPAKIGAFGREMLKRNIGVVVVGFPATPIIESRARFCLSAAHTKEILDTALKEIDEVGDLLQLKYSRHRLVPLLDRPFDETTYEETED
T1 sequence (O35704 1-473): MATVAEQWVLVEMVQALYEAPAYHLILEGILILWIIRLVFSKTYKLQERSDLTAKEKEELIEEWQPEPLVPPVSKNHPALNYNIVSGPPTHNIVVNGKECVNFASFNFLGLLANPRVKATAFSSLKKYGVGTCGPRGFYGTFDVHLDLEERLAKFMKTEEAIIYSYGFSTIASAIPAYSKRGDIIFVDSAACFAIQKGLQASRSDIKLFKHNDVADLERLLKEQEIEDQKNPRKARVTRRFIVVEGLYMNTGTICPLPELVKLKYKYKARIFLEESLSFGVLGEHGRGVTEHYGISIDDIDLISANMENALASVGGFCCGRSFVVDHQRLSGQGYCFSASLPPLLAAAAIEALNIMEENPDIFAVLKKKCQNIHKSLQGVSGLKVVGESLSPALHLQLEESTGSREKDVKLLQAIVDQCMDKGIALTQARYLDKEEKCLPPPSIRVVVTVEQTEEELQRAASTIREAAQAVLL
T1 sequence (Q8R207 1-71 partner): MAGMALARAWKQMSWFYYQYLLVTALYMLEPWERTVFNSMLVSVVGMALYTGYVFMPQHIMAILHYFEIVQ
Protocol: Liver tissues from each group were homogenized and SPT activity was measured using ^14C-serine and palmitoyl CoA as substrates and thin-layer chromatography (TLC) analysis (K. Gable et al., J. Biol. Chem. 2000;275(11):7597-603). FIGS. 1-A, 1-B, 1-C, 1-D and 1-E. SPT gene expression and enzyme activity. Mice were treated with 0.3 mg/kg/day myriocin for 12 weeks by mixing with Western diet chow. Liver was isolated and total mRNA and cell-free homogenate were prepared. SPT mRNA expression was quantified by quantitative RT-PCR. Expression was described as a ratio of LCB1 (A) or LCB2 (B) mRNA to 18s RNA or to rodent GAPDH RNA (n=5, P>0.05). SPT activity of cell-free homogenate (C) was measured with ^14C-labeled Serine and palmitoyl-coenzyme A as substrates and analyzed by TLC. Relative amounts of 3-ketosphinganine were determined by densitometry scanning. The values reported are mean±SEM (n=3, *P<0.05).

## CCCCCCC(=O)CCCCCC/C=C/C[C@@H](O)[C@H](O)[C@@](N)(CO)C(=O)O [myriocin]
[1]; 1 mg/kg/day, 4 weeks, vs no-myriocin control
  plasma sphingomyelin levels reduced (HPLC): 70%
[1]; WD + 0.1 mg myr
  PC in plasma: 2.763 ± 0.195 nmol/mL
  SM in plasma: 0.379 ± 0.035 nmol/mL
  SM; PC molar ratio: 0.137 ± 0.005^b
[1]; WD + 0.3 mg myr
  PC in plasma: 1.999 ± 0.085 nmol/mL
  SM in plasma: 0.243 ± 0.032 nmol/mL
  SM; PC molar ratio: 0.122 ± 0.013^b
[1]; WD + 1 mg myr
  PC in plasma: 2.044 ± 0.146 nmol/mL
  SM in plasma: 0.175 ± 0.013 nmol/mL
  SM; PC molar ratio: 0.086 ± 0.008^b
[2]; compared with the C57BI/6J control group
  decrease of SPT activity in the liver: 48%
[2]; compared with untreated Western diet-fed ApoE KO mice
  decrease of SPT activity in the liver: 66%
